Measured values taken from ChEMBL document CHEMBL3826875, “2,8-Disubstituted-1,6-Naphthyridines and 4,6-Disubstituted-Isoquinolines with Potent, Selective Affinity for CDK8/19” (ACS Med Chem Lett, 2016).

Species on record: Mus musculus
Assay: not given
Details: SW-620, 5 mg/kg

Compound | inhibition
COC1CN(C(=O)c2ccc3c(N)ncc(-c4ccc(-c5cnn(C)c5)cc4)c3n2)C1 | tde

Tested on: not listed separately
Assay: in vitro
Details: human, Caco-2

Compound | Papp A→B at 2 h, 1 µM
Cn1cc(-c2ccc(-c3cnc(N)c4ccc(N5CCOC5=O)cc34)cc2)cn1 | 20.6 ×10⁻⁶ cm/s
COC1(C)CN(C(=O)c2ccc3c(N)ncc(-c4ccc(-c5cnn(C)c5)cc4)c3c2)C1 | 25.2 ×10⁻⁶ cm/s
Cn1cc(-c2ccc(-c3cnc(N)c4ccc(C(=O)NC5CC5)cc34)cc2)cn1 | 32.5 ×10⁻⁶ cm/s
Cn1cc(-c2ccc(-c3cnc(N)c4ccc(C(=O)N5CC(C)(F)C5)cc34)cc2)cn1 | 25.8 ×10⁻⁶ cm/s
Cn1cc(-c2ccc(-c3cnc(N)c4ccc(C(=O)N5CC(F)(F)C5)cc34)cc2)cn1 | 39.7 ×10⁻⁶ cm/s
Cn1cc(-c2ccc(-c3cnc(N)c4ccc(C(=O)N5CCC5)cc34)cc2)cn1 | 27.2 ×10⁻⁶ cm/s

Further lines, results first:

Papp A→B at 2 h, 1 µM | Compound
40.1 ×10⁻⁶ cm/s | COC1(C)CN(C(=O)c2ccc3c(N)ncc(-c4ccc(-c5cnn(C)c5)cc4)c3n2)C1
42.6 ×10⁻⁶ cm/s | Cn1cc(-c2ccc(-c3cnc(N)c4ccc(C(=O)N5CCC5)nc34)cc2)cn1
23.9 ×10⁻⁶ cm/s | Cn1cc(-c2ccc(-c3cnc(N)c4ccc(C(=O)N5CC(F)(F)C5)nc34)cc2)cn1
34 ×10⁻⁶ cm/s | Cn1cc(-c2ccc(-c3cnc(N)c4ccc(C(=O)N5CCOCC5)nc34)cc2)cn1
28.6 ×10⁻⁶ cm/s | COC1CN(C(=O)c2ccc3c(N)ncc(-c4ccc(-c5cnn(C)c5)cc4)c3n2)C1
0.96 ×10⁻⁶ cm/s | Cn1cc(-c2ccc(-c3cnc(N)c4ccc(C(=O)N5CCNCC5)nc34)cc2)cn1
27.6 ×10⁻⁶ cm/s | Cn1cc(-c2ccc(-c3cnc(N)c4ccc(C(=O)N5CC(C)(F)C5)nc34)cc2)cn1
